{"source": "patent US5409898A", "about": "“Compositions and methods for treating infections caused by organisms sensitive to β-lactam antibiotics” (priority 1994, dated 1995)", "key": {"E. coli H16 [1]": {"test_system": "E. coli H16", "test": "In vivo protection of neutropenic mice from lethal E. coli H16 infection (magainin 2, C-13 peptide, cefepime, amikacin)", "conditions": "magainin 2 two injections 1 mg/mouse; amikacin two injections of 3 mg/kg", "protocol": "The ability of magainin and cefepime combinations to protect mice from a lethal infection of E. coli was examined. Mice were made neutropenic by injection of Cytoxan and then challenged with E. coli. Mice were then divided into four different groups: (1) mice that were given no further treatment; (2) were given magainin 2 or C-13 peptide only; (3) were given cefepime only and (4) were given a combination of magainin 2 or C-13 peptide and cefepime. […] When amikacin, an aminoglycoside, was tested in similar experiments, no in vitro bactericidal activity or in vivo protection was found.\nMice were made neutropenic five days prior to bacterial challenge. Neutropenia was induced by subcutaneous injection of 250 mg/kg Cytoxan (cyclophosphamide). The mice were challenged with 2×10^4 E. coli H16. Challenge was by intraperitoneal injection. […] The survival of the mice was monitored for a period of at least 10 days"}, "E. coli ATCC 25922": {"test_system": "E. coli ATCC 25922", "test": "Serum bactericidal assay in 40% pooled normal human serum (magainin 2 with antibiotics)", "format": "cell-based, Escherichia coli", "conditions": "for synergy of antibiotic with magainin 2: 1/32, 1/16, 1/8 MIC antibiotic, 200 μg/ml magainin 2, 40% pooled normal human serum"}, "human red blood cells": {"test_system": "human red blood cells", "test": "Hemolysis assay", "format": "cell-based"}, "E. coli H16 [2]": {"test_system": "E. coli H16", "test": "In vivo protection of neutropenic mice from systemic E. coli H16 infection (C-13 peptide analogs)", "text": "The ability of C-13 peptide analogs and cefepime combinations to protect mice from a lethal infection of E. coil was examined. Mice were made neutropenic by an injection of cyclophosphamide and then challenged with E. coli. Mice were then divided into four groups: (1) mice that were given PBS; (2) were given C-13 peptide analogs only; (3) were given cefepime only; and (4) were given a combination of C-13 peptide analogs and cefepime.\nMale CrL:CF1 mice were made neutropenic five days prior to bacterial challenge. Neutropenia was induced by subcutaneous injection of 250 mg/kg Cytoxan (cyclophosphamide). The mice were challenged with either 2×10^4 E. coli H16 (Table 4) or 5×10^4 A645AP by intraperitoneal injection. Mice were divided into four treatment groups: (1) PBS; (2) C-13 peptide analog (15 mg/kg); (3) cefepime (0.1 mg/kg); (4) a combination treatment of cefepime and C-13 peptide analog (0.1 mg/kg cefepime and 15 mg/kg C-13 peptide analog) that were combined prior to injection. All injections were made in PBS (0.2 ml) and were administered intramuscularly with each injection in separate legs, one and 3.5 hours after bacterial challenge. The survival of the mice was monitored for ten days and the results analyzed by the Fisher Exact test."}, "[3]": {"test_system": "endothelial cell proliferation", "conditions": "Maione et al., 1990; cited from earlier work"}, "[4]": {"test_system": "E. COLI A645 (ATCC 25922)", "test": "In vitro bactericidal activity (ID50) of cationic oligopeptides, serum bactericidal assay", "format": "cell-based, Escherichia coli", "protocol": "Cells were diluted without washing to 5×10^4 cells/ml gelatin-veronel buffer (GBV++) and 0.05 ml was added to serum (see section 7.1.3.) in a 1.5 ml Eppendorf vial. For those bacterial cells pregrown in cefepime, the same amount of cefepime that was present during growth was added for both the preparation and examination of bactericidal activity. […] Peptides were diluted in deionized water to make a stock solution of 2 mg/ml and added to the reaction vial to give the appropriate concentration. The total reaction volume was 0.25 ml."}, "[5]": {"conditions": "neutropenic mice, 2×10^4 E. coli H16 i.p., peptide 15 mg/kg, cefepime 0.1 mg/kg i.m. at one and 3.5 hours, ten days"}}, "note": "Where two headings read alike, the source gives them in different places. Non-standard residues stand in square brackets, D forms with d. Residues, ends and D or L forms follow the SMILES beside them. No end group written: not given here. Orn = NCCC[C@H](N)C(=O)O", "data": [{"molecule": "NCC[C@H](O)C(=O)N[C@@H]1C[C@H](N)[C@@H](O[C@H]2O[C@H](CN)[C@@H](O)[C@H](O)[C@H]2O)[C@H](O)[C@H]1O[C@H]1O[C@H](CO)[C@@H](O)[C@H](N)[C@H]1O", "note": "[amikacin]", "values": [{"measurement": "mice survived (out of total), amikacin experiment", "setting": "E. coli H16 [1]", "result": "three out of 10"}, {"measurement": "synergy of antibiotic with magainin 2", "setting": "E. coli ATCC 25922", "result": "neither Amikacin, an aminoglycoside and ciproflaxacin, a quinoline were synergistic"}]}, {"molecule": "CC(C)C[C@H](NC(=O)[C@H](C)N)C(=O)N[C@@H](Cc1ccc(O)cc1)C(=O)N[C@@H](CCCN)C(=O)N[C@@H](CCCN)C(=O)N[C@@H](CC(C)C)C(=O)N[C@@H](CC(C)C)C(=O)N[C@@H](CCCN)C(=O)N[C@@H](CCCN)C(=O)N[C@@H](CC(C)C)C(=O)N[C@@H](CC(C)C)C(=O)N[C@@H](CCCN)C(=O)N[C@@H](CO)C(=O)N[C@@H](C)C(=O)N[C@@H](CCCN)C(=O)N[C@@H](CCCN)C(=O)N[C@@H](CC(C)C)C(=O)NCC(=O)O", "note": "[analog II, Ala--Leu--Tyr--Orn--Orn--Leu--Leu--Orn--Orn--Leu--Leu--Orn--Ser--Ala--Orn--Orn--Leu--Gly] (H-ALY[Orn][Orn]LL[Orn][Orn]LL[Orn]SA[Orn][Orn]LG-OH)", "values": [{"measurement": "RBC LYSIS (%) (100 μG/ML)", "setting": "human red blood cells", "result": "< 1", "unit": "%"}]}, {"molecule": "CC(C)C[C@@H](NC(=O)[C@@H](C)N)C(=O)N[C@H](Cc1ccc(O)cc1)C(=O)N[C@H](CCCCN)C(=O)N[C@H](CCCCN)C(=O)N[C@H](CC(C)C)C(=O)N[C@H](CC(C)C)C(=O)N[C@H](CCCCN)C(=O)N[C@H](CCCCN)C(=O)N[C@H](CC(C)C)C(=O)N[C@H](CC(C)C)C(=O)N[C@H](CCCCN)C(=O)N[C@H](CO)C(=O)N[C@H](C)C(=O)N[C@H](CCCCN)C(=O)N[C@H](CCCCN)C(=O)N[C@H](CC(C)C)C(=O)NCC(=O)O", "note": "[analog X, dAla--dLeu--dTyr--dLys--dLys--dLeu--dLeu--dLys--dLys--dLeu--dLeu--dLys--dSer--dAla--dLys--dLys--dLeu--Gly] (H-[dA][dL][dY][dK][dK][dL][dL][dK][dK][dL][dL][dK][dS][dA][dK][dK][dL]G-OH)", "values": [{"measurement": "RBC LYSIS (%) (100 μG/ML)", "setting": "human red blood cells", "result": "< 1", "unit": "%"}]}, {"molecule": "C[C@H]1[C@H](NC(=O)/C(=N\\OC(C)(C)C(=O)O)c2csc(N)n2)C(=O)N1S(=O)(=O)O", "note": "[aztreonam]", "values": [{"measurement": "mice survived (out of total), aztreonam experiment", "setting": "E. coli H16 [2]; similar experiments with aztreonam", "result": "one out of 20"}, {"measurement": "synergy of antibiotic with magainin 2", "setting": "E. coli ATCC 25922", "result": "synergistic"}]}, {"molecule": "CC(C)(O/N=C(\\C(=O)N[C@@H]1C(=O)N2C(C(=O)[O-])=C(C[n+]3ccccc3)CS[C@H]12)c1csc(N)n1)C(=O)O", "note": "[ceftazidime]", "values": [{"measurement": "synergy of antibiotic with magainin 2", "setting": "E. coli ATCC 25922", "result": "synergistic"}]}, {"molecule": "O=C(O)c1cn(C2CC2)c2cc(N3CCNCC3)c(F)cc2c1=O", "note": "[ciprofloxacin]", "values": [{"measurement": "synergy of antibiotic with magainin 2", "setting": "E. coli ATCC 25922", "result": "neither Amikacin, an aminoglycoside and ciproflaxacin, a quinoline were synergistic"}]}, {"molecule": "C[C@@H](O)[C@H]1C(=O)N2C(C(=O)O)=C(SCCN=CN)C[C@H]12", "note": "[imipenem]", "values": [{"measurement": "synergy of antibiotic with magainin 2", "setting": "E. coli ATCC 25922", "result": "synergistic"}]}, {"molecule": "AKKLAKLYKKLLKKLLKSAKKLG [analog J, Ala--Lys--Lys--Leu--Ala--Lys--Leu--Tyr--Lys--Lys--Leu--Leu--Lys--Lys--Leu--Leu--Lys--Ser--Ala--Lys--Lys--Leu--Gly]", "values": [{"measurement": "RBC LYSIS (%) (100 μG/ML)", "setting": "human red blood cells", "result": 2.5, "unit": "%"}, {"measurement": "change in the amount of RBC lysis", "setting": "human red blood cells", "result": "increased the amount of RBC lysis"}]}, {"molecule": "ALYKKIIKKLLESAKKLG [analog H, Ala--Leu--Tyr--Lys--Lys--Ile--Ile--Lys--Lys--Leu--Leu--Glu--Ser--Ala--Lys--Lys--Leu--Gly]", "values": [{"measurement": "RBC LYSIS (%) (100 μG/ML)", "setting": "human red blood cells", "result": 1.5, "unit": "%"}]}, {"molecule": "ALYKKLLKKLLESAKKLG [analog F, Ala--Leu--Tyr--Lys--Lys--Leu--Leu--Lys--Lys--Leu--Leu--Glu--Ser--Ala--Lys--Lys--Leu--Gly]", "values": [{"measurement": "RBC LYSIS (%) (100 μG/ML)", "setting": "human red blood cells", "result": "< 1", "unit": "%"}]}, {"molecule": "ALYKKLLKKLLKFAKKFG [analog P, Ala--Leu--Tyr--Lys--Lys--Leu--Leu--Lys--Lys--Leu--Leu--Lys--Phe--Ala--Lys--Lys--Phe--Gly]", "values": [{"measurement": "RBC LYSIS (%) (100 μG/ML)", "setting": "human red blood cells", "result": 21, "unit": "%"}]}, {"molecule": "ALYKKLLKKLLKKAKKLG [analog KK, Ala--Leu--Tyr--Lys--Lys--Leu--Leu--Lys--Lys--Leu--Leu--Lys--Lys--Ala--Lys--Lys--Leu--Gly]", "values": [{"measurement": "RBC LYSIS (%) (100 μG/ML)", "setting": "human red blood cells", "result": "< 1", "unit": "%"}]}, {"molecule": "ALYKKLLKKLLKSAKKLG [analog G, Ala--Leu--Tyr--Lys--Lys--Leu--Leu--Lys--Lys--Leu--Leu--Lys--Ser--Ala--Lys--Lys--Leu--Gly]", "values": [{"measurement": "RBC LYSIS (%) (100 μG/ML)", "setting": "human red blood cells", "result": "< 1", "unit": "%"}, {"measurement": "change in the amount of RBC lysis", "setting": "human red blood cells", "result": "no increase"}]}, {"molecule": "ALYRRLLRRLLRSARRLG [analog HH, Ala--Leu--Tyr--Arg--Arg--Leu--Leu--Arg--Arg--Leu--Leu--Arg--Ser--Ala--Arg--Arg--Leu--Gly]", "values": [{"measurement": "RBC LYSIS (%) (100 μG/ML)", "setting": "human red blood cells", "result": 3, "unit": "%"}]}, {"molecule": "C-10: human platelet factor-4 peptide, amino acids 58-67 (PLYKKIIKKL; UniProt P02776 89-98, looked up, fragment)", "values": [{"measurement": "inhibitory action compared with C-13", "setting": "[3]", "result": "Little inhibitory action"}]}, {"molecule": "C-11: human platelet factor-4 peptide, amino acids 58-68 (PLYKKIIKKLL; UniProt P02776 89-99, looked up, fragment)", "values": [{"measurement": "inhibitory action compared with C-13", "setting": "[3]", "result": "less inhibitory"}]}, {"molecule": "C-12: human platelet factor-4 peptide, amino acids 58-69 (PLYKKIIKKLLE; UniProt P02776 89-100, looked up, fragment)", "values": [{"measurement": "inhibitory action compared with C-13", "setting": "[3]", "result": "less inhibitory"}]}, {"molecule": "Cecropin", "values": [{"measurement": "RBC LYSIS (%) (100 μG/ML)", "setting": "human red blood cells; 100 μG/ML peptide, 37° C. for 45 minutes", "result": "< 1", "unit": "%"}, {"measurement": "protection from systemic E. coli H16 infection", "setting": "E. coli H16 [2]; Fisher Exact test", "result": "no significant increase in protection"}, {"measurement": "% Survival", "setting": "E. coli H16 [2]; [5]", "result": 20, "unit": "%"}, {"measurement": "Number--Survived/Total", "setting": "E. coli H16 [2]; [5]", "result": "2/20"}, {"measurement": "ID50 1/4 MIC CEFEPIME NHS", "setting": "[4]; 1/4 MIC cefepime, NHS", "result": ".25 µg/mL"}, {"measurement": "ID50 1/4 MIC CEFEPIME HI-NHS", "setting": "[4]; 1/4 MIC cefepime, heat inactivated NHS", "result": ".5 µg/mL"}, {"measurement": "ID50 NO CEFEPIME NHS", "setting": "[4]; no cefepime, NHS", "result": 1, "unit": "µg/mL"}, {"measurement": "ID50 NO CEFEPIME HI-NHS", "setting": "[4]; no cefepime, heat inactivated NHS", "result": 1, "unit": "µg/mL"}]}, {"molecule": "KWKLYKKLLKKLLKSAKKLG [analog N, Lys--Trp--Lys--Leu--Tyr--Lys--Lys--Leu--Leu--Lys--Lys--Leu--Leu--Lys--Ser--Ala--Lys--Lys--Leu--Gly]", "values": [{"measurement": "RBC LYSIS (%) (100 μG/ML)", "setting": "human red blood cells", "result": 7.5, "unit": "%"}]}, {"molecule": "MGN 1: magainin 1, 23 amino acid cationic oligopeptide from skin secretions of Xenopus laevis (GIGKFLHSAGKFGKAFVGEIMKS; Magainin-1; UniProt P11006 37-59, looked up)", "values": [{"measurement": "MGN killing of untreated bacteria", "setting": "E. coli ATCC 25922; untreated bacteria, 40% PNHS", "result": "blocked the action"}]}, {"molecule": "PLYKKIIKKLLES [C-13, Pro--Leu--Tyr--Lys--Lys--Ile--Ile--Lys--Lys--Leu--Leu--Glu--Ser]", "values": [{"measurement": "RBC LYSIS (%) (100 μG/ML)", "setting": "human red blood cells", "result": "< 1", "unit": "%"}]}]}
